Source: the supplement of paper PMC11061612

How the values were obtained:
[1] = system: B-CPAP (Thyroid Gland Carcinoma); experiment: Bliss excess, mean over the matrix (fraction); higher = more synergy
Summary of the method: (§1)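 Bliss excess equals the observed combination effect minus the expected value EA + EB − EA·EB, where EA and EB are the effects of each agent alone. Combination Emax is the second-highest inhibition within the matrix. Inhibition was scaled from CellTiter-Glo 2.0 luminescence, with 0 set by vehicle wells and 1 by blank wells, after 72 hours of two-drug dosing of cells plated in 1536-well plates.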

[2] = system: DoTc2-4510 (Cervical Carcinoma); experiment: as above
Summary of the method: as §1

[3] = system: LB831-BLC (Bladder Carcinoma); experiment: as above
Summary of the method: as §1

[4] = system: NCI-H82 (Small Cell Lung Carcinoma); experiment: as above
Summary of the method: as §1

[5] = system: Calu-3 (Lung Adenocarcinoma); experiment: as above
Summary of the method: as §1

[6] = system: HCC1806 (Breast Carcinoma); experiment: as above
Summary of the method: as §1

[7] = system: CCRF-CEM (T-Lymphoblastic Leukemia); experiment: as above
Summary of the method: as §1

NB10 (Neuroblastoma) = experiment: as above
Summary of the method: as §1

[8] = system: Ramos-2G6-4C10 (Burkitt's Lymphoma); experiment: as above
Summary of the method: as §1

[9] = system: MFE-296 (Endometrial Carcinoma); experiment: as above
Summary of the method: as §1

[10] = system: OVCA420 (Ovarian Carcinoma); experiment: as above
Summary of the method: as §1

[11] = system: SNU-5 (Gastric Carcinoma); experiment: as above
Summary of the method: as §1

[12] = system: TE-15 (Esophageal Squamous Cell Carcinoma); experiment: as above
Summary of the method: as §1

[13] = system: B-CPAP (Thyroid Gland Carcinoma); experiment: combination Emax (second highest fraction inhibited in the dose matrix, 72 h); higher = more inhibition; extreme values may be limits of the assay
Summary of the method: as §1

[14] = system: HCC1806 (Breast Carcinoma); experiment: as above
Summary of the method: as §1

[15] = system: MFE-296 (Endometrial Carcinoma); experiment: as above
Summary of the method: as §1

[16] = system: OVCA420 (Ovarian Carcinoma); experiment: as above
Summary of the method: as §1

[17] = system: SNU-5 (Gastric Carcinoma); experiment: as above
Summary of the method: as §1

SMILES	Bliss excess [1]	Bliss excess [2]	Bliss excess [3]	Bliss excess [4]	Bliss excess [5]	Bliss excess [6]	Bliss excess [7]	Bliss excess (NB10 (Neuroblastoma))	Bliss excess [8]	Bliss excess [9]	Bliss excess [10]	Bliss excess [11]	Bliss excess [12]	combination Emax [13]	combination Emax [14]	combination Emax [15]	combination Emax [16]	combination Emax [17]
CS(=O)(=O)CCNCc1ccc(-c2ccc3ncnc(Nc4ccc(OCc5cccc(F)c5)c(Cl)c4)c3c2)o1 [Lapatinib] + NC1(c2ccc(-c3nc4ccn5c(=O)[nH]nc5c4cc3-c3ccccc3)cc2)CCC1 [MK-2206] (first compound max 10 µM, 7x7, partner max 10 µM)	0.0102	0.0089	-0.0044	-0.0176	0.0123	0.0574	0.026	-0.0423	0.0215	-0.026	0.0085	0.0404	-0.0202	0.909	0.954	0.296	0.884	0.387
N#Cc1cnc(Nc2cc(NC[C@H]3CNCCO3)c(C(F)(F)F)cn2)cn1 [SRA737] + CCc1c2c(nc3ccc(O)cc13)-c1cc3c(c(=O)n1C2)COC(=O)[C@]3(O)CC [SN-38] (first compound max 10 µM, 7x7, partner max 0.3 µM)		0.0093	0.0497	0.0325	-0.0477		-0.034	-0.141	0.135				-0.0928					
N#Cc1cnc(Nc2cc(NC[C@H]3CNCCO3)c(C(F)(F)F)cn2)cn1 [SRA737] + Nc1ccn([C@@H]2O[C@H](CO)[C@@H](O)C2(F)F)c(=O)n1 [Gemcitabine] (first compound max 10 µM, 7x7, partner max 0.3 µM)		0.135	0.0477	-0.0231	0.0286		0.0316	0.0922	0.149				0.0703					
N#Cc1cnc(Nc2cc(NC[C@H]3CNCCO3)c(C(F)(F)F)cn2)cn1 [SRA737] + O=c1[nH]cc(F)c(=O)[nH]1 [5-Fluorouracil] (first compound max 10 µM, 7x7, partner max 20 µM)		-0.0201	0.0113	-0.111	-0.0137		0.0179	-0.0036	-0.0068				-0.0033					
Cc1nc(-c2cn3c(n2)-c2ccc(-c4cnn(C(C)(C)C(N)=O)c4)cc2OCC3)n(C(C)C)n1 [Taselisib] + O=C(Nc1ccc2[nH]nc(-c3ccncc3)c2c1)[C@@H]1CCN(CC(=O)N2CCN(c3ccc(-c4ncccn4)cc3)CC2)C1 [SCH772984] (first compound max 10 µM, 7x7, partner max 5 µM)		0.0435	-0.0305	-0.0251	-0.0287		0.124	0.0751	0.008				-0.0011					
CC1(C)CCC(CN2CCN(c3ccc(C(=O)NS(=O)(=O)c4ccc(NCC5CCOCC5)c([N+](=O)[O-])c4)c(Oc4cnc5[nH]ccc5c4)c3)CC2)=C(c2ccc(Cl)cc2)C1 [Venetoclax] + CS(=O)(=O)CCNCc1ccc(-c2ccc3ncnc(Nc4ccc(OCc5cccc(F)c5)c(Cl)c4)c3c2)o1 [Lapatinib] (first compound max 1 µM, 7x7, partner max 10 µM)		-0.0509	-0.0597	-0.0384	-0.0529		0.0013	-0.0238	0.0377				-0.0478					
